In patent publication US6506373B1, “Agent and method for permanent waving” (Wella Aktiengesellschaft, priority 1998, dated 2003):

Experiments:
[1] = Bundle tensile strength of permanently waved and fixed hair
Method: The amount of permanent waving liquid was calculated from the ratio 1:1.2 (1 g of hair to 1.2 g of permanent waving liquid). The amount of 1.2 ml to 1 g of hair corresponds to an amount of 50 ml of permanent waving solution per head with an average weight of […] of hair per head. This solution was allowed to act for 15 minutes; the temperature of the reducing agent acting was 50° C. The permanent waving agent, based on thioglycolic acid, was rinsed out well with water (2 to 3 minutes). Subsequently, the hair strands were in each case moistened intensively with the respective ready-for-use fixative. This procedure was repeated three or six times, in that the strands, after each treatment, was suspended for six hours in the water bath.
The tensile strength of the bundles, which are a measure of the preservation of the hair, were determined using individual strands of hair.

[2] = cited from earlier work
[3] = Permanent waving application test: reductive treatment, then fixing with the ready-for-use fixative; settings: hair reduced with 10% thioglycolic acid solution pH 8.2, then fixed
Method: In these examples, the hair was treated reductively in each case in the following manner:
The solution was allowed to act for 15 minutes. The reducing agent acted at a temperature of 50° C.
At the end of the period of action, the excess permanent waving solution was rinsed out with water and the fixing solution was then applied with a sponge. The fixing solution is prepared 2 minutes before use by dissolving component 1 in component 2.
The hair is fixed for 30 minutes at 22° C. and subsequently rinsed with water. The curlers are then removed and the hair is rinsed with lukewarm water. Finally, the hair is styled and then dried.

Compound | increase in hair damage on repeated use (bundle tensile strength after three vs six treatments) [1] | stability in aqueous solution [2] | brightening of the hair (shift in color) [3]
O=C1O[C@H]([C@@H](O)CO)C(=O)C1=O [Dehydroascorbic Acid, dehydroascorbic acid] | no increase in hair damage | unstable and decomposes within a few hours | –
OO [Peroxide, hydrogen peroxide] | – | – | clearly detectable shift in coloring the direction of red and yellow
